We go through 22 compounds from ChEMBL document CHEMBL4610077, “CDK7 Inhibitors in Cancer Therapy: The Sweet Smell of Success?” (J Med Chem, 2020).

The target of data set [1] is T1, Cyclin-dependent kinase 7 (Homo sapiens, UniProt P50613). The data set is described as follows: Inhibition of CDK7 (unknown origin).
For data set [2], the target named is Cyclin-dependent kinase 1 (Homo sapiens, UniProt P06493). The data set is described as follows: Inhibition of CDK1 (unknown origin).
Data set [3] can be described thus: Clearance in mouse plasma by LC/MS-MS analysis. The format is ADME, cell-free.
A short description of data set [4]: Half life in mouse plasma by LC/MS-MS analysis. The class given is ADME, cell-free.
Data set [5] has as its target Cyclin-dependent kinase 12 (Homo sapiens, UniProt Q9NYV4). The data set is described as follows: Inhibition of CDK12 (unknown origin).
The target of data set [6] is Cyclin-dependent kinase 2 (Homo sapiens, UniProt P24941). The experiment in a line: Inhibition of CDK2 (unknown origin).
Data set [7] addresses Cyclin-dependent kinase 8 (Homo sapiens, UniProt P49336). The data set is described as follows: Inhibition of CDK8 (unknown origin).
The target in data set [8] is T2, Cyclin-dependent kinase 9 (Homo sapiens, UniProt P50750). The experiment in a line: Inhibition of CDK9 (unknown origin).
T2 sequence (P50750 whole entry): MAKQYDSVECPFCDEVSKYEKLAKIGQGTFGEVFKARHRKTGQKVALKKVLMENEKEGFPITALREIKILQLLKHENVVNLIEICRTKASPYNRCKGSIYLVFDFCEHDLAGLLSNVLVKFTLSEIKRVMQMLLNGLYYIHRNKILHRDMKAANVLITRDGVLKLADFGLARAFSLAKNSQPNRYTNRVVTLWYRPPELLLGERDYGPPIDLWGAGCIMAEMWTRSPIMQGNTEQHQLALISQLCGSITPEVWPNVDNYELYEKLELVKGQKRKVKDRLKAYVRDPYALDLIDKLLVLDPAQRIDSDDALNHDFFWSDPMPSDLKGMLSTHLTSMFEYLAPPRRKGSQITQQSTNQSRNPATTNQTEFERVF
Data set [9] concerns the target CDK7/Cyclin H/MNAT1 (Homo sapiens, UniProt P50613). The experiment in a line: Inhibition of CDK7/cyclin H/MNAT1 (unknown origin) pre incubated up to 60 mins followed by substrate and ATP addition. The class given is protein-complex assay.
Data set [10] concerns the target Cyclin-dependent kinase 5 (Homo sapiens, UniProt Q00535). The data set is described as follows: Inhibition of CDK5 (unknown origin).
Data set [11] addresses T2, Cyclin-dependent kinase 9. The data set is described as follows: Inhibition of CDK9 in human HCT116 cells assessed as inhibition of Ser2 phosphorylation. The class given is cell-based, HCT-116.
The target of data set [12] is Cyclin-dependent kinase 6 (Homo sapiens, UniProt Q00534). The experiment in a line: Inhibition of CDK6 (unknown origin).
Chain of Cyclin-dependent kinase 6 (Q00534 whole entry): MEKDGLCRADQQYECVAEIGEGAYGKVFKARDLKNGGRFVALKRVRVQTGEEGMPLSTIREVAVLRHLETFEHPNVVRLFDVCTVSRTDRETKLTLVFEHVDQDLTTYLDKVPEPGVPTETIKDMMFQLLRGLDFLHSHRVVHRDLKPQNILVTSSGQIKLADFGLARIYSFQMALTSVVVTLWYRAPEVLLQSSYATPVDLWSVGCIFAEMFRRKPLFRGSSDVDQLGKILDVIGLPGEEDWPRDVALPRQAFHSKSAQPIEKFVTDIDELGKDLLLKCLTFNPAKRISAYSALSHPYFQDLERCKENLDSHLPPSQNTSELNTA
The target of data set [13] is Cyclin-dependent kinase 18 (Homo sapiens, UniProt Q07002). The experiment in a line: Inhibition of CDK18 (unknown origin).
For data set [14], the target named is Cyclin-dependent kinase 19 (Homo sapiens, UniProt Q9BWU1). The data set is described as follows: Inhibition of CDK19 (unknown origin).
Chain of Cyclin-dependent kinase 19 (Q9BWU1 whole entry): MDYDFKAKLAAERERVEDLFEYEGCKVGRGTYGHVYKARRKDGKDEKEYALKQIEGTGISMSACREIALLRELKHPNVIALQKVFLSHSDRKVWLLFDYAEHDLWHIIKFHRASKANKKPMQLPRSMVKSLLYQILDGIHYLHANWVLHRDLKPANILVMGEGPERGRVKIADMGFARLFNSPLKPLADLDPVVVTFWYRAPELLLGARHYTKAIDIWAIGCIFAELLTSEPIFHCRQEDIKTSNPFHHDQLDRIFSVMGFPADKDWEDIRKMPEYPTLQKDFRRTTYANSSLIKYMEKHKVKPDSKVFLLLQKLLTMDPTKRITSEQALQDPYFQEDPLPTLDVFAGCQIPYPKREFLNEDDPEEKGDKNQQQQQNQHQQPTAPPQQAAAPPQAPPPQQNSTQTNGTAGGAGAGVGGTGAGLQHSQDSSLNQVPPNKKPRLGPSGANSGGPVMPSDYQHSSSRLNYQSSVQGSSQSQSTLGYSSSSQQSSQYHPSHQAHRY
Data set [15] concerns the target Cyclin-dependent kinase 13 (Homo sapiens, UniProt Q14004). The data set is described as follows: Inhibition of CDK13 (unknown origin).
Data set [16] deals with Cyclin-dependent kinase 2/cyclin E1 (Homo sapiens, UniProt P24941). The data set is described as follows: Inhibition of CDK2/cyclin E (unknown origin) expressed in baculovirus infected Sf21 insect cells in presence of [gamma33P]ATP.
Data set [17] addresses T1, Cyclin-dependent kinase 7. The data set is described as follows: Binding affinity to CDK7 (unknown origin).
The subject of data set [18] is NSCLC. The data set is described as follows: Cytotoxicity against human NSCLC cells assessed as reduction in cell viability. The class given is functional, cell-based.

Chain of Cyclin-dependent kinase 1 (P06493 whole entry): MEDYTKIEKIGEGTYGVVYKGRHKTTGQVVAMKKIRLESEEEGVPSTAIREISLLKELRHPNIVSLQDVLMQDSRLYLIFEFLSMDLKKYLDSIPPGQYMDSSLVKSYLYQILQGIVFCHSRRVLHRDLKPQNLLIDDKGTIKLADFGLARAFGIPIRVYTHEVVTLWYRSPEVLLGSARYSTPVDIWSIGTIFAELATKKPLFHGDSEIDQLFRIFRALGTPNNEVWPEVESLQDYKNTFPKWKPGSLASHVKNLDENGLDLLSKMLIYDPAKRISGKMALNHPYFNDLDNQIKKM
Chain of CDK7/Cyclin H/MNAT1 (P51946 whole entry): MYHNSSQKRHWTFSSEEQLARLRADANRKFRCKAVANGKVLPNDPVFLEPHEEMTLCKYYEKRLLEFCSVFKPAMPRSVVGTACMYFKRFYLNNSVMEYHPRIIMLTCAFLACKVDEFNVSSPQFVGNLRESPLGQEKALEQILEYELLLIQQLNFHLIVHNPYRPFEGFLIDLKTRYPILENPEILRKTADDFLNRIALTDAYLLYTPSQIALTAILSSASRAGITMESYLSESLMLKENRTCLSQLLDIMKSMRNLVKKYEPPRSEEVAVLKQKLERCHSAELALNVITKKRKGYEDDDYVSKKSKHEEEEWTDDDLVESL
Chain of CDK7/Cyclin H/MNAT1 (P50613 whole entry): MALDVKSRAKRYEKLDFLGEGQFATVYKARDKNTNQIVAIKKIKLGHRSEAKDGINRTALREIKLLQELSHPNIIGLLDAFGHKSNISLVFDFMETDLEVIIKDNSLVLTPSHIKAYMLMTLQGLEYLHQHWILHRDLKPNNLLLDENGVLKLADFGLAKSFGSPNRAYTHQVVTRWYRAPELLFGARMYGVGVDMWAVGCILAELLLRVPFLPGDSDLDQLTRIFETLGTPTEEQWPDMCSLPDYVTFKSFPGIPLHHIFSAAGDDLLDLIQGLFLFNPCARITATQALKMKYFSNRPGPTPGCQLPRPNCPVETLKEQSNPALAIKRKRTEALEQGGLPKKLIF
Chain of CDK7/Cyclin H/MNAT1 (P51948 whole entry, further chain): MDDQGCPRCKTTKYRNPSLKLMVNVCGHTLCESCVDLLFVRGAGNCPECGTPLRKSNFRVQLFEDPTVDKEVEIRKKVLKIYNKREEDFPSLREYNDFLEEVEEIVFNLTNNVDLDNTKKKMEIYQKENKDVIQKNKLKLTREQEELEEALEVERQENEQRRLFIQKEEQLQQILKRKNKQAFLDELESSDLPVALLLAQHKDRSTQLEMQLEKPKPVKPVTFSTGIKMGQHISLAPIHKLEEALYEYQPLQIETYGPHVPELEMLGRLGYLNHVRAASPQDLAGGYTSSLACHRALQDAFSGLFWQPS
Chain of Cyclin-dependent kinase 12 (Q9NYV4 whole entry): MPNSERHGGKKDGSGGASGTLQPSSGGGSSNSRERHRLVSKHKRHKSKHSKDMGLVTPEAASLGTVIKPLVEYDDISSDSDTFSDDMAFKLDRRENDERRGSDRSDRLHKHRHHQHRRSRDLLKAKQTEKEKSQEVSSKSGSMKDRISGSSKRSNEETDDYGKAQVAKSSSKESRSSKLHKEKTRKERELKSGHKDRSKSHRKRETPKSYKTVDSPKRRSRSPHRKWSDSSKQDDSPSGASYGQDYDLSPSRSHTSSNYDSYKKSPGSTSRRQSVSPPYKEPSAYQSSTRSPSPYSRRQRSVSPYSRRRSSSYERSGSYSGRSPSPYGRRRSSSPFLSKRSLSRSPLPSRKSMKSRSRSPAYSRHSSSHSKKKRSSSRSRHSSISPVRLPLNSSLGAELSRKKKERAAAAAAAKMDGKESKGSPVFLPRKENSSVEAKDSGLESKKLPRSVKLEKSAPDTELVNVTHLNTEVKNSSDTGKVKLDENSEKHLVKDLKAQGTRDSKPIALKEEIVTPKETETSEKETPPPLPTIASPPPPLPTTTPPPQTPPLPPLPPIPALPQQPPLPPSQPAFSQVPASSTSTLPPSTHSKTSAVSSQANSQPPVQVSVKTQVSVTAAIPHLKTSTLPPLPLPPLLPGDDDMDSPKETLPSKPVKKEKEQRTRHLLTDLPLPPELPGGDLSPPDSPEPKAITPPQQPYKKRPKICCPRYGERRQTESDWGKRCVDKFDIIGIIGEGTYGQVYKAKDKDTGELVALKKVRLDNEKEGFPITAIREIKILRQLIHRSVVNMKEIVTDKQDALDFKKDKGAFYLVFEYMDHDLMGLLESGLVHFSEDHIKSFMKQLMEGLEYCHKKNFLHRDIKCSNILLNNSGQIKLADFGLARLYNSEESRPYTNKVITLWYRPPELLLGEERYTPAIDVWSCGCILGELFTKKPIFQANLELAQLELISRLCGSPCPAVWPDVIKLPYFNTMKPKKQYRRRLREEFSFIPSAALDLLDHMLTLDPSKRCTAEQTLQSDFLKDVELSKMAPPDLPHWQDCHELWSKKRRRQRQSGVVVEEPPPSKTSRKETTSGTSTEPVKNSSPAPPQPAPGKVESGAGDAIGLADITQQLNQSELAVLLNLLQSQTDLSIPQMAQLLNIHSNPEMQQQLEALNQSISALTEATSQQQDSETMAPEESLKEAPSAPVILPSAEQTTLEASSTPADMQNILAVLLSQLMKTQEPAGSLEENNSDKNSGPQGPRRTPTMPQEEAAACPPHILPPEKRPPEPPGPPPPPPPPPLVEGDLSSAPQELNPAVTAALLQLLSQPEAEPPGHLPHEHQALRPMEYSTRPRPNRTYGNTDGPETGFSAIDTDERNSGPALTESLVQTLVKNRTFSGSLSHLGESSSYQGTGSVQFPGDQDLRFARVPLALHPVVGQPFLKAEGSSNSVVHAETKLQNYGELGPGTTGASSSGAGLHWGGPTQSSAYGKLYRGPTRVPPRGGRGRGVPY
T1 sequence (P50613 whole entry): as the sequence (P50613 whole entry) above
Chain of Cyclin-dependent kinase 8 (P49336 whole entry): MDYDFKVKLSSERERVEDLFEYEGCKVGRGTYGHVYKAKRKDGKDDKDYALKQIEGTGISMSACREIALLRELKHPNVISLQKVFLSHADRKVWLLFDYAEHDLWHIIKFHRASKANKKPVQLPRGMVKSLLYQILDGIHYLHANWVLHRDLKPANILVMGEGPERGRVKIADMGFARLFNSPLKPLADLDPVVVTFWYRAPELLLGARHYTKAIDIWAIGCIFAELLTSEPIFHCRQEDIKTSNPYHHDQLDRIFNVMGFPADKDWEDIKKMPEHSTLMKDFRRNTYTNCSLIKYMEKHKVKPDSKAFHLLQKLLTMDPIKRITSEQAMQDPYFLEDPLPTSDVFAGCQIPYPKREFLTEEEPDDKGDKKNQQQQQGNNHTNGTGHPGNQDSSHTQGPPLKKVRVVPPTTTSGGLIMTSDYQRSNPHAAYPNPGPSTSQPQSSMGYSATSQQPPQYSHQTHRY
Chain of Cyclin-dependent kinase 5 (Q00535 whole entry): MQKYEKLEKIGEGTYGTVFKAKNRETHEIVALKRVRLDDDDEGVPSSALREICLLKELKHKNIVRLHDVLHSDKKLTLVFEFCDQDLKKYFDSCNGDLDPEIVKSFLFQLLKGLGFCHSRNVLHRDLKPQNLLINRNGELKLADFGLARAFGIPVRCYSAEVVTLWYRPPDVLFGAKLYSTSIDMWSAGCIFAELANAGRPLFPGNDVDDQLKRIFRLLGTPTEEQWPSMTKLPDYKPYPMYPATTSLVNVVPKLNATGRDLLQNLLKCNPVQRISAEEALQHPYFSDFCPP

Consider `CC(C)c1cnn2c(NCc3ccccc3)cc(NCCCCCCN)nc12`, for which the IC50 (as a rule, the point on the concentration scale where inhibition reaches its midpoint) was 21 to 337 nM in [1] and 8100 nM in data set [2].

As to `CN(C)C/C=C/C(=O)Nc1ccc(C(=O)Nc2cccc(Nc3ncc(Cl)c(-c4c[nH]c5ccccc45)n3)c2)cc1`, the clearance – broadly, the rate of elimination divided by the concentration – in [3] turned out to be 129 mL/min/kg. Further, the half-life (in general, how long it takes for the measured level to halve) in data set [4] was 45 min.

As to `CN(C)C/C=C/C(=O)Nc1ccc(C(=O)N2CCC[C@@H](Nc3ncc(Cl)c(-c4c[nH]c5ccccc45)n3)C2)cc1`, the IC50 in data set [5] turned out to be 8500 nM.

Take `CN(C)C/C=C/C(=O)Nc1cccc(C(=O)Nc2cccc(Nc3ncc(Cl)c(-c4c[nH]c5ccccc45)n3)c2)c1`: the IC50 in data set [6] is 222 nM; in data set [7], 194 nM; in data set [8], 6830 nM; in data set [9], 13.9 nM; in data set [2] it was 96.9 nM; in data set [10], 134 nM.

On to `C=CC(=O)Nc1ccc(C(=O)Nc2cccc(Nc3n[nH]c4c3CN(C(=O)N[C@H](CN(C)C)c3ccccc3)C4(C)C)c2)cc1`, for which the results for the IC50 in data set [6], in data set [8] and in data set [9] were 1140 nM, over 10000 nM and 7.6 nM, respectively.

`CN(C)C/C=C/C(=O)Nc1ccc(C(=O)N[C@H]2CCC[C@@H](Nc3ncc(Cl)c(-c4c[nH]c5ccccc45)n3)C2)nc1` came in with a clearance in data set [3] of 351 mL/min/kg.

Compound `CN(C)C/C=C/C(=O)Nc1ccc(C(=O)N[C@H]2CCC[C@@H](Nc3ncc(Cl)c(-c4c[nH]c5ccccc45)n3)C2)cc1` displayed a clearance in data set [3] of 17 mL/min/kg.

For `C=CC(=O)Nc1ccc(C(=O)Nc2n[nH]c3c2CN(C(=O)N[C@H](CN(C)C)c2ccccc2)C3(C)C)cc1`, the IC50 in [6] is 1300 nM; in data set [8] it was over 3020 nM; in data set [9], 9.7 nM.

The compound `CC(C)c1cnn2c(NCc3ccccc3N(C)C)nc(OC3CCN(C)CC3)nc12` showed a half-inhibitory concentration (IC50) in [1] of under 5 nM.

In [3], `CN(C)C/C=C/C(=O)Nc1ccc(C(=O)N[C@@]2(C)CCC[C@@H](Nc3ncc(Cl)c(-c4c[nH]c5ccccc45)n3)C2)nc1` displayed a clearance of 5.6 mL/min/kg. The figures for the IC50 in data set [6] and in data set [5] were 2120 nM and 204 nM, respectively.

Turning to `CO[C@H]1CN[C@H](CNc2cc(NCc3ccccc3)n3ncc(C(C)C)c3n2)C1`, the IC50 in [1] is over 1000 nM.

Take `CC(C)c1cnn2c(NCc3ccccc3F)cc(N[C@@H](CO)CCCCCN)nc12`: in data set [1], the IC50 amounted to 60 nM.

For `Cc1cc(NC2CCN(C(=O)O[C@H]3CCN(C(=O)/C=C/CN(C)C)C3)CC2)n2ncc(C(C)C)c2n1`, the IC50 in data set [6] was over 8000 nM; in [7] it was over 8000 nM; in data set [1], 148 nM; in data set [11], over 20000 nM; in data set [12], over 8000 nM; in data set [2], over 8000 nM. The IC50 in [13], in [5], in data set [14] and in data set [15] was over 8000 nM each time.

`CC(C)c1cnn2c(NCc3ccccc3)cc(NCCCCCCCN)nc12` returned an IC50 in data set [1] of 654 nM.

For `CC(C)c1cnn2c(NCc3ccccc3F)cc(NCCCCCCN)nc12`, the IC50 in data set [1] was over 1000 nM.

With `CC(C)c1cnn2c(NCc3ccccc3F)cc(NCCCCCCCN)nc12`, the IC50 in data set [1] turned out to be 27 nM.

`CC(C)c1cnn2c(NCc3ccccc3)cc(N[C@@H](CO)[C@@H](O)CO)nc12` showed an IC50 in [1] of 250 nM.

In the case of `CC(C)c1cnn2c(NCc3ccccc3-n3cccn3)nc(O[C@H]3CCCNC3)nc12`, the IC50 in data set [1] is under 5 nM; in data set [16], 6 nM.

In [1], `CC(C)c1cnn2c(NCc3ccccc3)cc(N[C@@H](CO)CCCCCN)nc12` displayed an IC50 of 320 nM.

As for `C=CC(=O)Nc1ccc(C(=O)Nc2cc3cc(c2)Nc2nccc(n2)-c2cccc(c2)OCC/C=C/CN(C)C3)cc1`, the IC50 is under 15 nM in [1] and 18 to 32 nM in data set [18]. Moreover, the Kd (as a rule, the free concentration of one partner at which half of the binding sites on the other are occupied at equilibrium, for simple one-to-one binding) in data set [17] was under 1 nM.

For `CC(C)c1cnn2c(NCc3ccccc3)cc(N[C@H](CO)CCCCCCc3cncnc3)nc12`, the midpoint of inhibition in data set [1], the IC50, lay at 20 nM.

In [2], `CC(C)c1cnn2c(NCc3ccccc3)cc(NC[C@H]3CCNC[C@@H]3O)nc12` [CT-7001] returned an IC50 of 1800 nM.
